Measured values published in patent US12012385B1, “4,5-bis(4-methoxyphenyl)-1-hexyl-2-phenyl-1H-imidazole as an antimicrobial compound” (KING FAISAL UNIVERSITY, priority 2023, dated 2024).

Legend:
St. aureus = assay: Antimicrobial testing, agar dilution method; format: cell-based, Staphylococcus aureus; conditions: after 10, 20, 40 and 60 min at all dilutions 1:100, 1:200, 1:400, 1:800
Method: (§1) The antimicrobial properties of the, 5-bis(4-methoxyphenyl)-1-hexyl-2-phenyl-1H-imidazole was studied by the method of agar dilution. Test solutions of each compound was prepared in concentration of 1% using dimethylformamide as a solvent then they are diluted in physiological solution to obtain the final experimental dilutions 1:100, 1:200, 1:400, 1:800. The effect of these substances are compared with furacillin in a controllable study. The testing microbes used were gram positive bacteria St. aureus, gram negative bacteria E. Coli, Ps. aeruginosa and Candida albicans fungi were taken. The experiments used for this survey were meat-pentonlu agar (EPA) for cultivation of bacteria and Saburo environment for fungi. Each experiment used 1 ml of test solution on each plate 500 min. Add 2 drops of emulsified with microbes feel. All experimental samples were taken from the agar after 10, 20, 40, 60 minutes in the environment on the basis of Patrk planted. Bacteria were cultivated at a temperature of 37° C. for 1 day and the mushroom was kept in a thermostat for […] at a temperature of 28° C. Then the results were checked.

Ps. aeruginosa = assay: Antimicrobial testing, agar dilution method; format: cell-based, Pseudomonas aeruginosa; conditions: after 10, 20, 40 and 60 min at all dilutions 1:100, 1:200, 1:400, 1:800
Method: as §1

Candida albicans = assay: Antimicrobial testing, agar dilution method; format: cell-based; conditions: after 10, 20, 40 and 60 min at all dilutions 1:100, 1:200, 1:400, 1:800
Method: as §1

E. Coli = assay: Antimicrobial testing, agar dilution method; format: cell-based, Escherichia coli; conditions: after 10, 20, 40 and 60 min at all dilutions 1:100, 1:200, 1:400, 1:800
Method: as §1

melting point: 177 to 179 °C
SMILES: CCCCCCn1c(-c2ccccc2)nc(-c2ccc(OC)cc2)c1-c1ccc(OC)cc1 [4,5-bis(4-methoxyphenyl)-1-hexyl-2-phenyl-1H-imidazole]
inhibition activity (in words) (St. aureus): higher inhibition activity
inhibition activity (in words) (Ps. aeruginosa): higher inhibition activity
inhibition activity (in words) (Candida albicans): higher inhibition activity
inhibition activity (in words) (E. Coli): higher inhibition activity
